Assay results taken from US10167299B2, “1-(3-aminopropyl) substituted cyclic amine compounds, preparation method therefor, and pharmaceutical compositions and uses thereof” (SHANGHAI INSTITUTE OF MATERIA MEDICA, CHINESE ACADEMY OF …, priority 2013, dated 2019).
pIC50: −log10 of the molar value. Where two headings read alike, the source gives them in different places.

What was measured:
[1] = system: CCR5 protein; assay: Thermal stability of protein test (CPM-assay); type: binding; settings: for Tm (° C.): thermal stability of CCR5 protein with compound, CPM dye; for protein stability effect in words, versus positive control compound: conclusion from Table 2
Source text: Experimental theory: many cysteines are present in CCR5 protein sequence. Cysteines located in loop region form disulfide bonds to stabilize the tertiary structure of the protein. Some free cysteines in reduced state are located in the transmembrane region. Under excitation by incident light of 387 nm, the combination of free sulfhydryl and fluorescent dye CPM can emit excitation light of 436 nm. […] The free sulfhydryls originally located in the transmembrane region expose and combine with the fluorescent dye. And then the detector will detect changes in signal enhancement. Therefore, the thermal stability of membrane proteins can be determined according to the temperature (Tm) at the midpoint of changes in signal intensity.
Experimental steps: Upon preliminary purification, the obtained protein solution was transferred into a small concentration tube (100 kd, 500 ul) for concentration (1000 rcf, 12 min, 4° C.). After centrifugation, the concentration tube was taken out and flicked to prevent protein coagulation due to high local concentration. The final concentrated volume was about 50 μl. 117 μl of purified solution (volume is suitable to make the total volume up to 120 μl), 1 μl fluorescent dye cpm (in-house prepared) and 2 μl of concentrated protein solution (the amount of added protein is 3-5 μg according to the calculated concentration of the protein solution and the concentrated volume) were added to 2 ml Ependorf tube and incubated at room temperature for 20 min. And then the mixture was added to the cuvette (Qwan) and put in the testing equipment Cary, wherein the surface of the frosted glass faced out. The temperature was set in the range of 4-90° C. with 1° C. increase per minute and the program was run. Tm value can be obtained by processing the data and graph with a mapping software and can be used to compare the difference of protein thermal stability under different conditions.

[2] = target: CCR5 (Homo sapiens (Human), UniProt P51681); assay: Calcium flux inhibition experiment; type: cell-based; settings: for pIC50: HEK293/CCR5-Gα16 cell line, calcium flux, read-out: CCR5 IC50; for calcium influx inhibition effect in words, versus positive control compounds: conclusion from Table 1
CCR5, sequence (P51681 whole entry): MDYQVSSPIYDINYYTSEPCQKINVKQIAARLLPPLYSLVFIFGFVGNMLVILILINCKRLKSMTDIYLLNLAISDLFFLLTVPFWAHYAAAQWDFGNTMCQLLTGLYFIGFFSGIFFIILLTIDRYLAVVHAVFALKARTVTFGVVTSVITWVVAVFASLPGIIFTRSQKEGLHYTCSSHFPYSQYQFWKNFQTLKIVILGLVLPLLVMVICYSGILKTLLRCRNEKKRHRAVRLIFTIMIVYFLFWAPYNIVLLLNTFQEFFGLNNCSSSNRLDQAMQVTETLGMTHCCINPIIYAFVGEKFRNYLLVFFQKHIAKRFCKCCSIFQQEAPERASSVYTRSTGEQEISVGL

[3] = target: hERG (Homo sapiens (Human), UniProt Q12809)
hERG, sequence (Q12809 whole entry): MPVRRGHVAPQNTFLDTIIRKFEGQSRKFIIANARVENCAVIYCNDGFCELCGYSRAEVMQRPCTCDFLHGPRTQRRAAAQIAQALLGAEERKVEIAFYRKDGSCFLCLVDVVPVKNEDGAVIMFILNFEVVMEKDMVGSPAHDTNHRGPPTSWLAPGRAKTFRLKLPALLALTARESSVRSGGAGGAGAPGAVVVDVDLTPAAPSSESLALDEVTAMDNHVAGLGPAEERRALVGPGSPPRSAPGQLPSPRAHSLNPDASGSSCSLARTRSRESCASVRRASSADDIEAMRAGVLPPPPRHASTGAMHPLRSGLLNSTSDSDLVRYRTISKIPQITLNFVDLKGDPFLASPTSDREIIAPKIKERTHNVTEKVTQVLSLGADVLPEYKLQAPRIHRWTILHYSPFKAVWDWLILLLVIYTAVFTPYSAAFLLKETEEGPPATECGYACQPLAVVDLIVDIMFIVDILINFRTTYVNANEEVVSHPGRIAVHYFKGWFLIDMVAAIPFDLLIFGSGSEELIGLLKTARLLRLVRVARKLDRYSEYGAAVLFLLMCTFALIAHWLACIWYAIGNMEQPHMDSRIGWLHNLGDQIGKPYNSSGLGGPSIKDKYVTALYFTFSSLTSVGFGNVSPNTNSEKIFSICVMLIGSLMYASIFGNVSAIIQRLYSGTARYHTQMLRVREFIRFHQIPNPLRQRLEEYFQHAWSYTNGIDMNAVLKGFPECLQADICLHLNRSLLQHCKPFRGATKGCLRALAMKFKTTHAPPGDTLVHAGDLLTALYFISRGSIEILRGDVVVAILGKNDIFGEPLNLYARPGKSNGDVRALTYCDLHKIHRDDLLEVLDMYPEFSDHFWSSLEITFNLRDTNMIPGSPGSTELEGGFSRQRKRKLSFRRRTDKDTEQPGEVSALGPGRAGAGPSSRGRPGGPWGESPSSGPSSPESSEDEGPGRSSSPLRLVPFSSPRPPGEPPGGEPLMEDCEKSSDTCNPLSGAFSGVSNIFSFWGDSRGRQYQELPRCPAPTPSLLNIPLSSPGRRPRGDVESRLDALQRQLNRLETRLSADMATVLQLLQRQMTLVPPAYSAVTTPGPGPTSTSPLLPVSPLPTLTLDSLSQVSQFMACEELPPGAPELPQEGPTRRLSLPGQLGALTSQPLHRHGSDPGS
Description: CHO-hERG cells which have been incubated overnight were added with sample buffer and incubated for 90 minutes at room temperature in darkness.
The sample buffer was removed and assay buffer was added.
The compound is added to the cell plate and incubated for 20 minutes in darkness.
Cell plate was placed into FDSS. The fluorescence signal was recorded every second for 10 seconds. Exciting buffer was added to the cells at the 10th second and the fluorescence signal was recorded every second for 180 seconds

[4] = target: CYP2C9 (Homo sapiens (Human), UniProt P11712); assay: CYP450 inhibition activity assay (Vivid kit) CYP2C9; type: in vitro ADME; settings: CYP450 subtype (μM) 2C9 (IC50)
CYP2C9, sequence (P11712 whole entry): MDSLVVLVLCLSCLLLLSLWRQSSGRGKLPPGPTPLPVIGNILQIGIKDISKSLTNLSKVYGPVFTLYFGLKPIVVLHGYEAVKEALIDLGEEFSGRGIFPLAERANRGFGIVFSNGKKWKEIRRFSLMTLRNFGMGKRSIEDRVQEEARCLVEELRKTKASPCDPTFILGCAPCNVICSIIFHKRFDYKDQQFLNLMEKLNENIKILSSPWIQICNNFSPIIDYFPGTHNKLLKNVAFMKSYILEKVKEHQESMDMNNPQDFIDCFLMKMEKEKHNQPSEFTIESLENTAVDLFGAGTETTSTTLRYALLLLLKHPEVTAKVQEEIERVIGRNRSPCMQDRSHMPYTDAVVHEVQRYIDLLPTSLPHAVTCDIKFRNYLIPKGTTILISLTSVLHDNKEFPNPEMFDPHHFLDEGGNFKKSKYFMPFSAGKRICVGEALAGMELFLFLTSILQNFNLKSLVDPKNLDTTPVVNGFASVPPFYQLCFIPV

[5] = target: CYP2C19 (Homo sapiens (Human), UniProt P33261); assay: CYP450 inhibition activity assay (Vivid kit) CYP2C19; type: in vitro ADME; settings: CYP450 subtype (μM) 2C19 (IC50)
CYP2C19, sequence (P33261 whole entry): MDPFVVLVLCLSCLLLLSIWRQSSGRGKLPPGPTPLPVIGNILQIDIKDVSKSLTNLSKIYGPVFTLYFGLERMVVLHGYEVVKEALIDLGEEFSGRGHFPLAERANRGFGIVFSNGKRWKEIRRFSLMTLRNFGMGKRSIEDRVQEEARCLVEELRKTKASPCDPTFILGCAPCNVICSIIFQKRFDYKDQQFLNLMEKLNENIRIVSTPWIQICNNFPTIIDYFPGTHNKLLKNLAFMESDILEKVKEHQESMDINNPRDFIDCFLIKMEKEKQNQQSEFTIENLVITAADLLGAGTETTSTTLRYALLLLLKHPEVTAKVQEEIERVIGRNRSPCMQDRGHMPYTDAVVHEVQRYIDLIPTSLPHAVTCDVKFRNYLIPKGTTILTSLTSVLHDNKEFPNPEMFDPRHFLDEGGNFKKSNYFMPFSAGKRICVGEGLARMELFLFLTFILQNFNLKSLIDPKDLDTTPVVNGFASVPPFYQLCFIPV

[6] = target: CYP1A2 (Homo sapiens (Human), UniProt P05177); assay: CYP450 inhibition activity assay (Vivid kit) CYP1A2; type: in vitro ADME; settings: CYP450 subtype (μM) 1A2 (IC50)
CYP1A2, sequence (P05177 whole entry): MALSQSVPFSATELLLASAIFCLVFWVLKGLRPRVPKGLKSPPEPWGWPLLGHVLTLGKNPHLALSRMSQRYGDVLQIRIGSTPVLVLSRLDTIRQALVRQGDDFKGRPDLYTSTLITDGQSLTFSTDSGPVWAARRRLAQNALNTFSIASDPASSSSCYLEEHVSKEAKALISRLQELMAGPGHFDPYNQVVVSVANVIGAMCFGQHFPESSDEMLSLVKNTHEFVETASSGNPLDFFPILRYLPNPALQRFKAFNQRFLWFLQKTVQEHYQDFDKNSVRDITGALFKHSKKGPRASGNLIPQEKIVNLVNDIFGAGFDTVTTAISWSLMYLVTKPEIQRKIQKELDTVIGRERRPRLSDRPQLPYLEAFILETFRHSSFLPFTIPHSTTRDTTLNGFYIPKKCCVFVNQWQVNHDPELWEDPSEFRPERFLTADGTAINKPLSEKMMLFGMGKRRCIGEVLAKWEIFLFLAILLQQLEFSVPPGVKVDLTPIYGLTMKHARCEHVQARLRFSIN

[7] = target: CYP3A4-T (Homo sapiens (Human), UniProt P08684); assay: CYP450 inhibition activity assay (Vivid kit) CYP3A4-T; settings: CYP450 subtype (μM) 3A4-T (IC50)
CYP3A4-T, sequence (P08684 whole entry): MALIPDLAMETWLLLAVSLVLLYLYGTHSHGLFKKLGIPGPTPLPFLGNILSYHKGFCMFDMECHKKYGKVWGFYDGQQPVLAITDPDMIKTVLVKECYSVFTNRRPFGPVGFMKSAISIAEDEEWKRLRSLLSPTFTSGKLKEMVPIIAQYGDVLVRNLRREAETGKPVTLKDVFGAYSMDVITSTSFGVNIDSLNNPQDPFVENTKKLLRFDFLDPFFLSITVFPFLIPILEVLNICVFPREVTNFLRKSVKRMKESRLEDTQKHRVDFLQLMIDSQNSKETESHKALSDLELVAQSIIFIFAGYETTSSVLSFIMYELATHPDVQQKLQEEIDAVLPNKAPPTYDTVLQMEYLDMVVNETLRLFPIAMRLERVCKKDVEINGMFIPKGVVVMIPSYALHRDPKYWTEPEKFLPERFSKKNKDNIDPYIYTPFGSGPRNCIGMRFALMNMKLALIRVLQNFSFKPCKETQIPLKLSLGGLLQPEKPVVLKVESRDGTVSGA
Description: (§1) VividR CYP450 Screening Kits can be used to evaluate the effects on CYP450 subtypes (CYP1A2, CYP2D6, CYP2C9, CYP2C19, CYP3A4-T and CYP3A4-M) and the substrate VividR in the kit can be metabolizd to a product which can emit strong fluorescence in an aqueous solution by specific CYP450 enzymes.
(§2) 1. The compounds to be tested and positive compound were added to corresponding wells and DMSO was added to control wells.
(§3) 2. CYP450 enzyme was added to the compounds to be tested, positive compound and DMSO control wells. The enzyme dilution was used to replace enzyme and added to DMSO wells as test background. The mixture was vibrated and mixed for 1 minute, and then incubated at room temperature for 20 minutes.
(§4) 3. NADP^+ regeneration system and the substrate were added to initiate the reaction and incubated at room temperature for 60 minutes.

[8] = target: CYP2D6 (Homo sapiens (Human), UniProt P10635); assay: CYP450 inhibition activity assay (Vivid kit) CYP2D6; type: in vitro ADME; settings: CYP450 subtype (μM) 2D6 (IC50)
CYP2D6, sequence (P10635 whole entry): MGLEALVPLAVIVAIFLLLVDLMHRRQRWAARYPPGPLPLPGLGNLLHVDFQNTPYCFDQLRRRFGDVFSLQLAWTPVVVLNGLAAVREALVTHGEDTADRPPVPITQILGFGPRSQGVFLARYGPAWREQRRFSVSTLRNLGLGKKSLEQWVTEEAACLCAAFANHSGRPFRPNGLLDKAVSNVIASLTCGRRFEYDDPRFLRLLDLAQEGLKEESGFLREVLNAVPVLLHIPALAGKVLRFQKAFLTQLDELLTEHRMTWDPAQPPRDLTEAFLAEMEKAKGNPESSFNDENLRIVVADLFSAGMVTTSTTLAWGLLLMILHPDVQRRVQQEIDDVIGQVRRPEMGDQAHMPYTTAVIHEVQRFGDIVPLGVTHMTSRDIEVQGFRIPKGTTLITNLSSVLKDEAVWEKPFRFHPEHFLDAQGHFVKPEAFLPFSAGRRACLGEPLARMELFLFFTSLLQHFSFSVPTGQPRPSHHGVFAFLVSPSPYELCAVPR

[9] = target: CYP3A4-M (Homo sapiens (Human), UniProt P08684); assay: CYP450 inhibition activity assay (Vivid kit) CYP3A4-M; settings: CYP450 subtype (μM) 3A4-M (IC50)
CYP3A4-M, sequence (P08684 whole entry): as the sequence (P08684 whole entry) above
Description: as §1, §2, §3, §4

[10] = Four days subacute toxicity test of rats; type: in vivo; settings: SD rats; for Clinical observations, clinical pathology detection (hematology and serum biochemistry) and macroscopic morphological observation / weight gain compared with vehicle control group: gavage 4 days, 100 and 1000 mg/kg; for weight gain compared with vehicle control group: some male and female animals; for NOAEL at 4 days: both sexes, rat, in vivo, po, gavage for 4 days, read-out: No Observed Adverse Effect Level (NOAEL)
Source text: After compounds 18 and 22 of the present invention were administrated to SD rats through gavage for 4 consecutive days, the toxic reaction was preliminarily assessed to confirm the possible target organ of toxic reaction.
One vehicle control group was set. Each group contained four rats including two male rats and two female rats. During the experiment stage, the animals were daily clinically observated. The body weight was regularly measured. On the 5th day, all animals were subject to pathological examination and gross anatomy.

SMILES: Cc1nnc(C(C)C)n1C1CC2CCC(C1)N2CC[C@H](NC(=O)C1CCC(F)(F)CC1)c1cccs1 (stereo partly drawn) [Compound 14, 4,4-difluoro-N-[(1S)-3-[exo-3-(3-isopropyl-5-methyl-4H-1,2,4-triazol-4-yl)-8-azabicyclo[3.2.1]octane-8-yl]-1-(thiophen-2-yl)propyl]cyclohexane-1-carboxamide]
- Tm (° C.) [1]: 68.10 °C
- pIC50 [2]: 8.63
- calcium influx inhibition effect in words, versus positive control compounds [2]: better than the positive control compounds

SMILES: Cc1nnc(C(C)C)n1C1CC2CCC(C1)N2CC[C@H](NC(=O)C1CCCCC1)c1cccs1 (stereo partly drawn) [Compound 16]
- pIC50 ([3]; human): 5.52
- protein stability effect in words, versus positive control compound [1]: comparable with the positive control compound
- Tm (° C.) [1]: 71.32 °C
- pIC50 [2]: 8.65
- calcium influx inhibition effect in words, versus positive control compounds [2]: better than the positive control compounds
- IC50 [4]: > 25 µM
- IC50 [5]: > 25 µM
- IC50 [6]: > 25 µM
- IC50 [7]: 21.7 µM
- IC50 [8]: 15.1 µM
- IC50 [9]: 12.3 µM

SMILES: Cc1nnc(C(C)C)n1C1CCN(CC[C@H](NC(=O)C2CCCC2)c2cccs2)CC1 [Compound 17, N-[(1S)-3-[4-(3-isopropyl-5-methyl-4H-1,2,4-triazol-4-yl)-piperidin-1-yl]-1-(thiophen-2-yl)propyl]cyclopentane-1-carboxamide]
- Tm (° C.) [1]: 66.97 °C
- pIC50 [2]: 8.59
- calcium influx inhibition effect in words, versus positive control compounds [2]: better than the positive control compounds
- IC50 [4]: > 25 µM
- IC50 [5]: > 25 µM
- IC50 [6]: > 25 µM
- IC50 [7]: > 25 µM
- IC50 [8]: > 25 µM
- IC50 [9]: > 25 µM

SMILES: Cc1nnc(C(C)C)n1C1CC2CCC(C1)N2CC[C@H](NC(=O)C1CCCC1)c1cccs1 (stereo partly drawn) [Compound 18, N-[(1S)-3-[exo-3-(3-isopropyl-5-methyl-4H-1,2,4-triazol-4-yl)-8-azabicyclo[3.2.1]octane-8-yl]-1-(thiophen-2-yl)propyl]cyclopentane-1-carboxamide]
- protein stability effect in words, versus positive control compound [1]: comparable with the positive control compound
- Tm (° C.) [1]: 71.73 °C
- Clinical observations, clinical pathology detection (hematology and serum biochemistry) and macroscopic morphological observation [10]: no significant drug-related changes
- weight gain compared with vehicle control group [10]: increased slowly or exhibited negative growth
- NOAEL at 4 days [10]: 1000 mg/kg
- pIC50 [2]: 8.43
- calcium influx inhibition effect in words, versus positive control compounds [2]: better than the positive control compounds
- IC50 [4]: > 25 µM
- IC50 [5]: > 25 µM
- IC50 [6]: > 25 µM
- IC50 [7]: > 25 µM
- IC50 [8]: 16.8 µM
- IC50 [9]: > 25 µM

SMILES: Cc1nnc(C(C)C)n1C1CC2CCC(C1)N2CC[C@H](NC(=O)C1CCC(F)(F)CC1)c1ccsc1 (stereo partly drawn) [Compound 22, 4,4-difluoro-N-[(1S)-3-[exo-3-(3-isopropyl-5-methyl-4H-1,2,4-triazol-4-yl)-8-azabicyclo[3.2.1]octane-8-yl]-1-(thiophen-3-yl)propyl]cyclohexane-1-carboxamide]
- hERG inhibition activity in words, versus positive control compounds [3]: better that those of positive control compounds
- Tm (° C.) [1]: 68.21 °C
- Clinical observations, clinical pathology detection (hematology and serum biochemistry) and macroscopic morphological observation [10]: no significant drug-related changes
- weight gain compared with vehicle control group [10]: increased slowly or exhibited negative growth
- NOAEL at 4 days [10]: 1000 mg/kg
- pIC50 [2]: 8.98
- calcium influx inhibition effect in words, versus positive control compounds [2]: better than the positive control compounds
- IC50 [4]: > 25 µM
- IC50 [5]: > 25 µM
- IC50 [6]: > 25 µM
- IC50 [7]: > 25 µM
- IC50 [8]: > 25 µM
- IC50 [9]: > 25 µM

SMILES: Cc1ccc([C@H](CCN2C3CCC2CC(n2c(C)nnc2C(C)C)C3)NC(=O)C2CCC(F)(F)CC2)s1 (stereo partly drawn) [Compound 29, 4,4-difluoro-N-[(1S)-3-[exo-3-(3-isopropyl-5-methyl-4H-1,2,4-triazol-4-yl)-8-azabicyclo[3.2.1]octane-8-yl]-1-(5-methylthiophen-2-yl)propyl]cyclohexane-1-carboxamide]
- pIC50 [3]: 5.07
- hERG inhibition activity in words, versus positive control compounds [3]: better that those of positive control compounds
- IC50 [4]: > 25 µM
- IC50 [5]: > 25 µM
- IC50 [6]: > 25 µM
- IC50 [7]: 23.4 µM
- IC50 [8]: > 25 µM
- IC50 [9]: 10.9 µM
